Experimental data published in patent US20220313587A1, “Oral Care Compositions” (Colgate-Palmolive Company, priority 2019, published 2022).

Columns and labels:
[1] = tested on: Cyp24A1; assay: Relative gene expression by qPCR (Cyp24A1 probe) in oral tissue model after treatment with toothpaste slurry; type: cell-based, human; details: fresh toothpaste slurry 1:3 in water, 2 minutes treatment, overnight incubation, normalized with GAPDH
Description: (§1) A toothpaste slurry was prepared by diluting the toothpaste formulation of Table 1 with deionized water in a 1:3 ratio. The slurry was applied on top of tissues that modeled the human oral cavity. After 2 minutes of the treatment, the tissues were rinsed with PBS twice or three times. Medium in wells was replaced with fresh medium and incubated in a cell culture incubator for overnight. Tissues were harvested and processed for RNA isolation and c-DNA preparation. Two probes were used for qPCR; CAP-18 (LL-37) and Cyp24A1. Relative levels of expressions were assessed after normalization with GAPDH (internal control).
(§2) The data is consistent for both LL-37 and Cyp24A1.

[2] = tested on: CAP-18 (LL-37); assay: Relative gene expression by qPCR (LL-37 probe) in oral tissue model after treatment with toothpaste slurry; type: cell-based, human; details: fresh toothpaste slurry 1:3 in water, 2 minutes treatment, overnight incubation, normalized with GAPDH
Description: as §1, §2

[3] = tested on: gingival epithelial cells (GEC); assay: Topical application of vitamin D to gingival epithelial cells, LL-37 expression; type: cell-based

Compound	Relative Gene Expression after Treatment, Cyp24A1, Mean [1]	Relative Gene Expression after Treatment, LL-37, Mean [2]	expression of anti-microbial peptide (LL-37) proteins [3]
C=C1CC[C@H](O)C/C1=C/C=C1\CCC[C@]2(C)[C@@H]([C@H](C)CCCC(C)C)CC[C@@H]12 [Neat Active, cholecalciferol]	4.3	2.0	
C=C1/C(=C\C=C2/CCC[C@]3(C)[C@@H]([C@H](C)CCCC(C)(C)O)CC[C@@H]23)C[C@@H](O)C[C@@H]1O [1,25(OH)2D3, 1,25-dihydroxycholecalciferol]			induces enhanced expression
